Earlier results on one substance are cited in patent publication US20110287117A1, “Adjuvant Therapy in the Treatment of Gouty Arthritis” (UNIVERSITY OF MEDICINE AND DENTISTRY OF NEW JERSEY, priority 2009, published 2011).

For this data set the following is noted: in vivo.

In the case of “recombinant IL-6: recombinant interleukin 6 administered in a cited study”, the “serum SU level” value is reported as “lowered” and the “urinary secretion of uric acid” value is reported as “increased”.
